Measured values published in patent US12227769B2 (priority 2018, dated 2025).

Columns and labels:
[1] = tested on: Rous sarcoma virus, HIV-1, RSV, parainfluenza virus type 3, VSV, measles virus, and reovirus; conditions: shown previously [52, 53, 59]; cited from earlier work
[2] = tested on: rgRSV or rgRSV-G1857A-G1853A; format: cell-based, RSV A2 strain; conditions: 15 μg/ml Cc3Ado; rgRSV and rgRSV-G1853A-G1857A-infected cells; day 3
[3] = tested on: rgRSV or rgRSV-G1857A-G1853A; format: cell-based, RSV A2 strain; conditions: 50 μg/ml Cc3Ado, day 3
[4] = molecular target: T1, Recombinant human RIG-I protein (Homo sapiens, UniProt O95786); assay: Limited trypsin digestion of RIG-I:RNA complexes; format: biochemical; conditions: 2 h trypsin digestion, 2 mM AMP-PNP
T1 construct: trypsin treatment of the full-length RIG-I protein (approximately 110 kDa) yielded a 55-kDa RIG-I fragment; Flag; made in house; host or cells: HEK-293T
T1 sequence (O95786 1-925): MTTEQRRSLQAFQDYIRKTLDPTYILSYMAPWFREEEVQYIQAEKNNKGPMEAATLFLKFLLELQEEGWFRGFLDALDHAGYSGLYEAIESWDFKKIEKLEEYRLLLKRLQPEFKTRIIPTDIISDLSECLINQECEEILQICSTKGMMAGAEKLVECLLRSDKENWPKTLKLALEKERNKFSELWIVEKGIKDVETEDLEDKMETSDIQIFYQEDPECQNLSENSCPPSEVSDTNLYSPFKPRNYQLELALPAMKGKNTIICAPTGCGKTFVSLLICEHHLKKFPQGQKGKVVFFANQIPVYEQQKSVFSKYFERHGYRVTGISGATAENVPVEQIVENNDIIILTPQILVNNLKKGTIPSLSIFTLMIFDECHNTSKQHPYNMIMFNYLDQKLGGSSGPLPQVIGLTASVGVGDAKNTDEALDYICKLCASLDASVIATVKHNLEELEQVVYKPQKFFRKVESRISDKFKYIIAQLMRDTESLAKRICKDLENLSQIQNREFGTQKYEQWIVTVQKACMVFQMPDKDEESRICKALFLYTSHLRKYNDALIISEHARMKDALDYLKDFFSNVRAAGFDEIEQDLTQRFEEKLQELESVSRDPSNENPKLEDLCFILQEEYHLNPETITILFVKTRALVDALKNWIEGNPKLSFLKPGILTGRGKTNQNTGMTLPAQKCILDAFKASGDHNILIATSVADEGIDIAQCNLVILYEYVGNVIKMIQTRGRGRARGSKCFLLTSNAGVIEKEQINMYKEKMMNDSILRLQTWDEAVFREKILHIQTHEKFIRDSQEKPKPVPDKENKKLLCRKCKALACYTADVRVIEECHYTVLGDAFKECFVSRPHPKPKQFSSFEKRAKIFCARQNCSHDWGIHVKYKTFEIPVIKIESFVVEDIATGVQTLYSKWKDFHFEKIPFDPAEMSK

RIG-I = format: cell-based, human

Nc1nccc2c1ncn2[C@@H]1O[C@H](CO)[C@@H](O)[C@H]1O [3-deazaadenosine]
inhibition of virus replication [1]: capable of inhibiting the replication of diverse viruses

Carbocyclic 3-deazaadenosine [Cc3Ado]
effect on RSV spread (GFP) in HEp-2 cells [2]: inhibited rgRSV spread over 3 days
effect on GFP signal in rgRSV-G1853A-G1857A-infected HAE cells [3]: the GFP signal was further reduced

Poly(I.C)
trypsin-resistant 80-kDa RIG-I fragment [4]: yielded an 80-kDa fragment
expression of RIG-I in RNA-transfected cells (RIG-I): activated RIG-I expression in a dose-dependent manner
